Values quoted from earlier work as cited in US20050239746A1, “Pharmaceutical composition” (priority 2002, published 2005).

How the values were obtained:
[1] = intravenous infusion, 3 g single dose, 8 healthy volunteers
[2] = test system: isolated guinea pig trachea; details: 0.1M aqueous solution in 40% w/v 2-hydroxypropyl-beta-cyclodextrin

Row | Compound | safety and tolerability [1] | muscle relaxant activity compared with the lipid emulsion [2]
1 | 2-hydroxypropyl-beta-cyclodextrin [Encapsin-HPB] | safe and well tolerated | 
2 | CC(C)c1cccc(C(C)C)c1O [Propofol, 2,6 di-isopropylphenol] |  | three times higher
